Reference: patent US20230137021A1, “Drug Conjugates of Sugar Derivatives and Uses Thereof as Senolytic Agents” (Rubedo Life Sciences, Inc., priority 2021, published 2023)
Where two headings read alike, the source gives them in different places.

Assays:
Format in all cases: cell-based
[1] = test system: T47D breast cancer cells, sgNTC; test: CRISPR-engineered cancer cell line viability assay (XTT), T47D sgNTC; details: T47D cells with Cas9 and sgNTC, treated for three days, absolute IC50 at Y=0.5 viability, read-out: T47/D sgNTC
Protocol: (§1) T47D and HCC1954 breast cancer cells were cultured in RPMI 1640 medium containing 10% heat inactivated fetal bovine serum. Cell lines were infected with lentiviral construct(s) containing S. pyogenes Cas9 and sgRNA(s) targeting the gene(s) of interest. Infected cells were selected by antibiotic treatment. To assess cell viability in response to compound treatment, cells were seeded into 96-well plates. The next day, serial dilutions covering 10 concentrations of compound were added to the cells. Cells were treated for three days. Cell viability was determined by mitochondrial dehydrogenase activity (XTT assay, Cayman Chemical). To generate dose-response curves, data was fitted to a four-parameter Hill function and the absolute IC50 was determined at Y=0.5 viability.

[2] = test system: T47D breast cancer cells, sgFUCA1; test: CRISPR-engineered cancer cell line viability assay (XTT), T47D/sgFUCA1; details: T47D cells with Cas9 and sgFUCA1, treated for three days, absolute IC50 at Y=0.5 viability
Protocol: as §1

[3] = test system: senescent IMR90 primary lung fibroblasts; test: Cytotoxicity assay (XTT), senescent IMR90 cells; details: incubated with drug for 72 hours, read-out: IMR90 SEN
Protocol: Proliferating and senescent cells were maintained in T175 flasks under the conditions specified below, passaging upon reaching ˜90% confluency. Prior to use in cytotoxicity assays, cells were visually inspected under phase microscopy for contamination and health; if either contamination or significant cell debris was noted, cells were not used. Healthy cells were plated into the middle 60 wells of 96-well plates at a concentration of either 5,000 or 10,000 cells/well (for proliferating and senescent conditions, respectively). The outer 36 wells in each plate contained DPBS to both prevent desiccation of the interior wells and edge effects upon spectrometry readings. […] The XTT reagent undergoes an absorbance shift upon reduction through an NAD(P)H-dependent metabolic reaction, and the resulting shift can be used to quantify the viability of the remaining cells after drug treatment. Absorbance readings for each test article were taken once a suitable dynamic range was achieved (generally 0.7-1.4 absorbance units). […]
IMR90 primary lung fibroblasts were thawed into DMEM (high glucose, 4 mM L-glutamine, no sodium pyruvate) supplemented with 10% heat-inactivated fetal bovine serum and 1% penicillin-streptomycin antibiotic cocktail. […] Following this rest period, senescence induction was assessed by morphology, SA-β-gal activity, and EdU incorporation. […]

senescent A549 cells = test: Cytotoxicity assay (XTT), senescent A549 cells; details: A549 senescence induced with 25 μM gemcitabine, incubated with drug for 72 hours, read-out: A549 SEN
Protocol: Proliferating and senescent cells were maintained in T175 flasks under the conditions specified below, passaging upon reaching ˜90% confluency. Prior to use in cytotoxicity assays, cells were visually inspected under phase microscopy for contamination and health; if either contamination or significant cell debris was noted, cells were not used. Healthy cells were plated into the middle 60 wells of 96-well plates at a concentration of either 5,000 or 10,000 cells/well (for proliferating and senescent conditions, respectively). The outer 36 wells in each plate contained DPBS to both prevent desiccation of the interior wells and edge effects upon spectrometry readings. After seeding cells into the 96-well plates, they were given 24 hours to attach prior to drug addition. Drug was added in triplicate across 10 different concentrations, spanning roughly 4 Log 10 units. Plates were incubated with drug for 72 hours, at which point the drug-containing media was aspirated and replaced with XTT media. The XTT reagent undergoes an absorbance shift upon reduction through an NAD(P)H-dependent metabolic reaction, and the resulting shift can be used to quantify the viability of the remaining cells after drug treatment. Absorbance readings for each test article were taken once a suitable dynamic range was achieved (generally 0.7-1.4 absorbance units). The resulting data was then background corrected and logarithmized to produce concentration-response curves.
Wild type A549 cells were thawed into DMEM (high glucose, 4 mM L-glutamine, no sodium pyruvate) supplemented with 10% heat-inactivated fetal bovine serum and 1% penicillin-streptomycin antibiotic cocktail. Cells were cultured at 37 C, 5% CO2, and atmospheric oxygen. For senescence induction, only A549s at passage 20 or lower were used. Cells were grown to 60-70% confluency before aspirating media and replacing with fresh media containing 25 μM gemcitabine. Cells were cultured without refreshing media for 72 hours. After treatment, the drug-containing media was aspirated, cells were gently washed with 1×DPBS, and fresh, drug-free media was added to the flask, at which point the cells were allowed to rest for a further 72 hours. Following this rest period, senescence induction was assessed by morphology, SA-β-gal activity, and EdU incorporation. Note: senescence induction with gemcitabine can occasionally result in spontaneous re-entry into the cell cycle in A549s. For this reason, cells should be used in various assays within 14 days of induction to avoid outgrowth of non-senescent populations. In cytotoxicity assays, proliferating cells at passage 20 or younger were included as a comparator. […]

[4] = test system: T47D breast cancer cells, sgGLB sgGALC; test: CRISPR-engineered cancer cell line viability assay (XTT), T47D/sgGLB sgGALC; details: Homo sapiens, 72 h, T47D cells with Cas9 and sgGLB sgGALC, treated for three days, absolute IC50 at Y=0.5 viability
Protocol: as §1

Row | Compound | IC50 ([1]; Homo sapiens, 72 h) [nM] | IC50 ([2]; Homo sapiens, 72 h) [nM] | IC50 (senescent A549 cells; Homo sapiens) [nM] | other results
1 | CC(=O)O[C@H]1[C@H](C)O[C@@H](ONC(=O)/C=C/c2ccc(CN(CCc3c(C)[nH]c4ccccc34)C(=O)OCc3oc(=O)oc3C)cc2)C[C@@H]1OC(C)=O [Compound 105] | 53.1 | 2860 |  | 
2 | Cc1[nH]c2ccccc2c1CCN(Cc1ccc(/C=C/C(=O)NO[C@H]2C[C@H](O)[C@@H](O)[C@H](C)O2)cc1)C(=O)OCc1oc(=O)oc1C [Compound 106] |  | 29200 |  | 
3 | CC(=O)O[C@@H]1[C@H](C)O[C@@H](ONC(=O)c2cnc(N3CCC(CNCc4cn(C)c5ccccc45)CC3)nc2)C[C@@H]1OC(C)=O [Compound 107, (2S,3R,4S,6S)-3-(acetyloxy)-2-methyl-6-[({2-[4-({[(1-methyl-1H-indol-3-yl)methyl]amino}methyl)piperidin-1-yl]pyrimidin-5-yl}formamido)oxy]oxan-4-yl acetate] | 9.4 | 1010 |  | 
4 | C[C@@H]1O[C@@H](ONC(=O)c2cnc(N3CCC(CNCc4cn(C)c5ccccc45)CC3)nc2)C[C@H](O)[C@@H]1O [Compound 108, N-{[(2S,4S,5S,6S)-4,5-dihydroxy-6-methyloxan-2-yl]oxy}-2-[4-({[(1-methyl-1H-indol-3-yl)methyl]amino}methyl)piperidin-1-yl]pyrimidine-5-carboxamide] | 942 | 8720 |  | 
5 | CC(=O)O[C@H]1[C@H](C)O[C@@H](ONC(=O)/C=C/c2ccc(CNCCc3c(C)[nH]c4ccccc34)cc2)C[C@@H]1OC(C)=O [Compound 111] | 25.3 | 1110 | 243 | IC50 ([3]; Homo sapiens, IMR-90, IMR90 senescence induced with 300 nM doxorubicin): 3780 nM
6 | Cc1[nH]c2ccccc2c1CCNCc1ccc(/C=C/C(=O)NO[C@H]2C[C@H](O)[C@@H](O)[C@H](C)O2)cc1 [Compound 112] | 822 | 16400 |  | 
7 | Cc1[nH]c2ccccc2c1CCNCc1ccc(/C=C/C(=O)NO[C@@H]2O[C@H](CF)[C@H](O)[C@H](O)[C@H]2O)cc1 [Compound 122, (E)-N-[(2S,3R,4S,5R,6S)-6-(fluoromethyl)-3,4,5-trihydroxy-tetrahydropyran-2-yl]oxy-3-[4-[[2-(2-methyl-1H-indol-3-yl)ethylamino]methyl]phenyl]prop-2-enamide] | > 30000 |  |  | IC50 [4]: > 30000 nM
8 | Cc1[nH]c2ccccc2c1CCNCc1ccc(/C=C/C(=O)NO[C@@H]2O[C@H](CO)C[C@H](O)[C@H]2O)cc1 [Compound 124, (E)-N-[(2S,3R,4S,6S)-3,4-dihydroxy-6-(hydroxymethyl)tetrahydropyran-2-yl]oxy-3-[4-[[2-(2-methyl-1H-indol-3-yl)ethylamino]methyl]phenyl]prop-2-enamide] | 9860 |  | 67000 | IC50 [4]: > 30000 nM
9 | C/C(=C\C=C\CNCCc1c(C)[nH]c2ccccc12)C/C=C/C(=O)NOC1O[C@H](CO)[C@H](F)[C@H](O)[C@H]1O (some centres unmarked) [Compound 126] |  |  | > 30000 | 
10 | (2E)-N-{[(3aR,4S,7aS)-4-methyl-2-oxo-hexahydro-[1,3]dioxolo[4,5-c]pyran-6-yl]oxy}-3-[4-({[2-(2-methyl-1H-indol-3-yl)ethyl]amino}methyl)phenyl]prop-2-enamide [Compound 109] |  |  |  | IC50 ([3]; IMR90 senescence induced with 300 nM doxorubicin): 13500 nM; IC50 [1]: 330 nM; IC50 [2]: 1360 nM; IC50 (senescent A549 cells): 2270 nM
